The text below walks through data of PMC11124413, “Synthesis, Antibacterial Effects, and Toxicity of Licochalcone C” (Pharmaceuticals, 2024).

Each structure is given as a SMILES string. Values after ≈ are worked out from the molar mass of the structure shown. Read-outs that look alike come from different tables or passages of the source. A value given as a limit tells only on which side of the number the result lay.

The target in one data set is NADH-FMN oxidoreductase. Details: method as in PMID 9621457. The conditions noted are these: cited from earlier work.
A further data set relates to M. avium (ATCC 25291). As to the kind of experiment: Antimycobacterial MIC, resazurin microtiter assay. It is filed as cell-based. Particulars: ATCC25291; Mycobacterium avium; mean of triplicates.
The next data set deals with A549 (lung). Also noted: method as in PMID 26397392. Particulars: at 45 µg/mL; cited from earlier work.
In a further data set the test system is Gram-positive bacteria. Description: MIC, panel of Gram-positive bacteria. It is filed as cell-based. Particulars: all Gram-positive bacteria tested.
Another data set deals with KYSE 410 (esophageal). Details: method as in PMID 32009586. Particulars: read-out: IC50 (proliferation); cited from earlier work.
Data set [1] concerns Staphylococcus aureus (ATCC 29213) membrane. As to the kind of experiment: Membrane disruption assay, fluorescence microscopy with SYTO9 and propidium iodide. Particulars: S. aureus; LCC at MIC 12.5 µg/mL, 15 min; nisin positive control.
Protocol: Two fluorescent dyes propidium iodide (PI) and SYTO9 were added, which stain cells with disrupted membranes (in pink) and whole membranes (in blue).
The assay was performed using Staphylococcus aureus (ATCC 29213), an MSSA strain. Bacterial cells were cultivated in solid TSA broth (tryptone soya) at 36 °C and stirred at 200 rpm. […] Cells were stained with the Live/Dead BacLight Kit (Thermo-Scientific® L7012, Carlsbad, CA, USA), which is composed of two nucleic acid dyes: SYTO9, which stains all cells, and propidium iodide, which penetrates cells with damaged membranes [60]. The stained cells were immobilized on agarose-covered slides as described by Martins [61]. Untreated S. aureus cells with intact membranes were used as negative controls, and S. aureus cells exposed to nisin (Sigma-Aldrich® N5764, St. Louis, MO, USA) were used as positive controls for membrane damage [62]. Microscopic analyses were carried out using an Olympus BX-61 microscope, equipped with a monochromatic OrcaFlash-2.8 camera (Hamamatsu, Japan), and the software CellSens Dimension Version 11 (Olympus).
For another data set, the system named is KYSE 450 (esophageal). Details: method as in PMID 32009586. Particulars: read-out: IC50 (proliferation); cited from earlier work.
Another data set concerns MRSA (ATCC BAA44). As to the kind of experiment: MIC, broth microdilution with resazurin. In kind it is cell-based. The conditions noted are these: Staphylococcus aureus (MRSA), mean of triplicates.
The subject of a further data set is Vero cells. Also noted: method as in PMID 31749783. Particulars: cited from earlier work.
The test system of a further data set is HSC4 (oral). Details: method as in PMID 30129052. The conditions noted are these: read-out: IC50 (proliferation); cited from earlier work.

Take `COc1c(/C=C/C(=O)c2ccc(O)cc2)ccc(O)c1CC=C(C)C` [LCC, licochalcone C]: the IC50 was more than 100 µM on NADH-FMN oxidoreductase; 19 µM in the data set with KYSE 410 (esophageal); 28 µM in the data set on KYSE 450 (esophageal); 27.7 µg/mL (≈ 81.9 µM) in the data set with Vero cells; 27.1 µM with HSC4 (oral). The results for the MIC in the data set with M. avium (ATCC 25291), with MRSA (ATCC BAA44) and in the data set on MRSA (ATCC BAA44) (read-out: MIC) were 62.5 µg/mL (≈ 185 µM), 12.5 µg/mL (≈ 36.9 µM) and 12.5 µg/mL (≈ 36.9 µM), respectively. In addition, the proliferation inhibition with A549 (lung) was 40%. Also, in the data set with Gram-positive bacteria, the “MIC, range over Gram-positive bacteria” value is 6.2 to 50.0 µg/mL. In [1], the “percentage of cells with permeabilized membrane (stained with both fluorophores)” value turned out to be 75%.
